In PubChem BioAssay AID588646 (The Scripps Research Institute Molecular Screening Center, 2011):
Calls of active or inactive are those of the source.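 How the source made its calls: active means phosphorylated p38 level fell or rose by at least 30% against DMSO-treated cells; inactive means change under 30% either way.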

Target: Mitogen-activated protein kinase 14 (Homo sapiens) (UniProt Q16539)
Assay: phosphorylated p38 MAPK abundance shift – cell-based, HCT116 colorectal carcinoma, chemiluminescent western blot, counter-screen for KLF5 inhibitor project, late-stage follow-up (AID 588646)
Conditions: HCT116 phospho-p38 western blot, 24 h, at 10 µM; for inhibition: measured here: phospho-p38 inhibition percent

Sequence of Mitogen-activated protein kinase 14 (Homo sapiens) (Q16539 whole entry, looked up): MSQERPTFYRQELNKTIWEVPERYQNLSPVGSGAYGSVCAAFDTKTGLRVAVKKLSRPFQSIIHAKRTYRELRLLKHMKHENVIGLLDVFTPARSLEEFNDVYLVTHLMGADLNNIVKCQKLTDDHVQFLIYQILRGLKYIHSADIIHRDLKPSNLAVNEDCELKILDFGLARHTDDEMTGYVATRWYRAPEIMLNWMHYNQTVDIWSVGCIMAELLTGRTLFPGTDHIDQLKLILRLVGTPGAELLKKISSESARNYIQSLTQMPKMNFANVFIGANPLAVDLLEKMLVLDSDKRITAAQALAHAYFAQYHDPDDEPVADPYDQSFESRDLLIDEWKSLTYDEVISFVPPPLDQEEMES

| SMILES | fold change | inhibition [%] |
| --- | --- | --- |
| CN(C(=O)CNC(=O)/C=C/c1cccc(Cl)c1)C1CCS(=O)(=O)C1 (stereo not given) | -1.14 (inactive) | 11.9 |
| CN(C(=O)COC(=O)/C=C/c1cccc([N+](=O)[O-])c1)C1CCS(=O)(=O)C1 (stereo not given) | 2.03 | -103 |
| CN(C(=O)CNC(=O)/C=C/c1cccc(Cl)c1)C1CCS(=O)(=O)CC1 | 7.64 |  |
